The target in one assay is T1, serotonin 1A receptor (Rattus norvegicus, UniProt P19327).
T1 construct: To the receptor fraction of the hippocampus were added a test compound and 0.5 nM of [^3H]; 8-hydroxy-dipropylaminotetralin; from tissue; host or cells: SD rat hippocampus, membrane (receptor) fraction
T1 sequence (P19327 1-422): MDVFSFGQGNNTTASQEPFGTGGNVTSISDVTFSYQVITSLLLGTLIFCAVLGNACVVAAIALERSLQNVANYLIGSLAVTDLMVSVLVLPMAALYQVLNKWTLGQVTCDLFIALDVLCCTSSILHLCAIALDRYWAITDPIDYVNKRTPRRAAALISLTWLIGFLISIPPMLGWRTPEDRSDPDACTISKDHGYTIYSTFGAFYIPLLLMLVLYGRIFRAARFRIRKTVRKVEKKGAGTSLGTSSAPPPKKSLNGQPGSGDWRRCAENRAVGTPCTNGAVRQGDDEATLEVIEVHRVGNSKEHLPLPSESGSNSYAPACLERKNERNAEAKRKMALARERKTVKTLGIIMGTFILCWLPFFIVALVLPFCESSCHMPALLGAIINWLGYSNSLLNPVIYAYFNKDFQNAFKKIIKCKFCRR
The experiment in a line: Binding test on [3H] 8-hydroxy-dipropylaminotetralin (serotonin 1A receptor). The note with it: [3H] 8-OH-DPAT 0.5 nM, receptor fraction of rat hippocampus; read-out: 5HT1a.

The target in the next assay is α1 adrenalin receptor. The assay is described as follows: Binding test on [3H] prazosin (α1 adrenalin receptor). Also noted: species or system rat. The note with it: [3H] prazosin about 0.2 nM, receptor fraction of rat cerebral cortex.
A further assay deals with serotonin 2 receptor (Rattus norvegicus, UniProt P14842). The experiment in a line: Binding test on [3H] ketanserin (serotonin 2 receptor).
Chain of serotonin 2 receptor (P14842 whole entry): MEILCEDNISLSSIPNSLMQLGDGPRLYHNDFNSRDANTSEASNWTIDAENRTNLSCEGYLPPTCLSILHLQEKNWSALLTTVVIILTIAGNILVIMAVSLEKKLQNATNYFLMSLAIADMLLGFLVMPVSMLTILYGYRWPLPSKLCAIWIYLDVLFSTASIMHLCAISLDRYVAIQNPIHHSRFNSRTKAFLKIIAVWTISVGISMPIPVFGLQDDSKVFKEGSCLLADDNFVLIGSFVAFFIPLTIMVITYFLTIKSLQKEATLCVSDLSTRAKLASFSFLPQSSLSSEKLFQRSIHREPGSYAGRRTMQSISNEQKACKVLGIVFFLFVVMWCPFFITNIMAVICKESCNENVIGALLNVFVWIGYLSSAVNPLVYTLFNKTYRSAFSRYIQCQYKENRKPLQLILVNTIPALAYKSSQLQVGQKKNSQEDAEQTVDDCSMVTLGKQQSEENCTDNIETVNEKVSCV
[1] abbreviates: [3H] ketanserin 0.3 nM, receptor fraction of rat cerebral cortex, read-out: 5HT2.

Where a name gives a salt, the structure may show the parent alone. Read-outs that look alike come from different tables or passages of the source.

Description for serotonin 2 receptor: Use was made of SD rats aged 6 to 8 weeks.
The rats were sacrificed by dcapitation to extirpate the cerebra.
The hippocampus was mixed with 50 times (on the wet weight basis) as much a 0.32 M sucrose solution while the cortex was mixed with 10 times as much the same solution. Each mixture was homogenized by using a Teflon glass homogenizer and centrifuged at 1,000×g for 10 min. The supernatant thus obtained was further centrifuged at 20,000×g for 20 min. The obtained precipitate was re-suspended in 50 times (based on the intial wet weight; in the case of the hippocampus) or 10 times (in the case of the cortex) as much a 50 mM Tris hydrochloride (pH 7.4) and incubated at room temperature for 30 min. After centrifuging at 20,000×g for 20 min, the obtained precipitate was further suspended and centrifuged twice each in the same manner. The precipitate thus obtained was suspended in 100 times (based on the initial wet weight; in the case of the hippocampus) or 20 times (in the case of the cortex) as much a 50 mM Tris hydrochloride solution (pH 7.4) to thereby give a receptor fraction. This receptor fraction was stored at −80° C. until using.
(Binding Test on [^3H] Ketanserin)
Next, it was filtered through a glass filter with the use of a cell harvester. After washing the glass filter with 50 mM Tris hydrochloride (pH 7.4), the radioactivity of the receptor was measured with a liquid scintillation counter. The binding detected in the presence of 1 μM of methysergide was referred to as the nonspecific binding.
IC50 was calculated by the probit method, while Ki was determined in accordance with the following formula:
wherein c represents the concentration of the radioisotope-labeled compound, and Kd represents the dissociation constant of the radioisotope-labeled compound with respect to the receptor determined by Scatchard's analysis.

`Nc1nc2cc3c(cc2s1)CCN3C1CCN(CCc2ccc(F)cc2)CC1` [Example 235]: the Ki on serotonin 1A receptor came to 0.0002 µM; on α1 adrenalin receptor, 0.0778 µM; on serotonin 2 receptor (setting [1]) it was 0.0146 µM.

Turning to `Fc1ccc(CCN2CCC(N3CCc4ccccc43)CC2)cc1F` [Example 11, 1-[1-(3,4-difluorophenethyl)piperidin-4-yl]indoline], the figures for the Ki at serotonin 1A receptor, on α1 adrenalin receptor and at serotonin 2 receptor (setting [1]) were 0.0057 µM, 0.147 µM and 0.0279 µM, respectively.

In the case of `CC(=O)N1CCC(CNC(=O)Cc2ccc3ccn(C4CCN(CCc5ccc(F)cc5)CC4)c3c2)CC1` [Example 343, Oxalate], the Ki came out at 0.00154 µM at serotonin 1A receptor, 0.0381 µM on α1 adrenalin receptor and 0.00164 µM at serotonin 2 receptor.

On to `CC(=O)NCc1ccc2c(CO)cn(C3CCN(CCc4ccc(F)cc4)CC3)c2c1` [Example 372, 1-[1-(4-fluorophenethyl)piperidin-4-yl]-3-hydroxymethyl-6-acetamidomethylindole], for which the values for the Ki at serotonin 1A receptor, on α1 adrenalin receptor and on serotonin 2 receptor (setting [1]) were over 0.02 µM, 0.206 µM and over 0.02 µM, respectively.

For `O=C(Cc1ccc2ccn(C3CCN(CCc4ccc(F)cc4)CC3)c2c1)NCCN1CCOCC1` [Example 313, 1-[1-(4-fluorophenethyl)piperidin-4-yl]-6-[2-(morpholin-4-yl)ethyl]carbamoylmethylindole Oxalate], the Ki at serotonin 1A receptor amounted to 0.0131 µM; on α1 adrenalin receptor, 0.144 µM; on serotonin 2 receptor (setting [1]), 0.00158 µM.

`O=C(CF)NCc1ccc2ccn(C3CCN(CCc4ccccc4F)CC3)c2c1` [Example 381, 1-[1-(2-fluorophenethyl)piperidin-4-yl]-6-fluoroacetamidomethylindole]: the Ki stood at 0.00137 µM at serotonin 1A receptor, 0.101 µM on α1 adrenalin receptor and 0.00202 µM on serotonin 2 receptor (setting [1]).

Consider `CN(C)CC(=O)NCc1ccc2ccn(C3CCN(CCc4ccc(F)cc4)CC3)c2c1` [Example 375, 1-[1-(4-fluorophenethyl)piperidin-4-yl]-6-(N,N-dimethylaminoacetamido)methylindole], for which the Ki at serotonin 1A receptor came to 0.00156 µM; at α1 adrenalin receptor it was 0.0614 µM; on serotonin 2 receptor (setting [1]), 0.00337 µM.

As for `O=C(Cc1ccc2ccn(C3CCN(CCc4ccc(F)cc4)CC3)c2c1)N1CCCC1` [Example 298, 1-[1-(4-fluorophenethyl)piperidin-4-yl]-6-(tetramethylenecarbamoylmethyl)indole Oxalate], the Ki at serotonin 1A receptor was 0.00186 µM; at α1 adrenalin receptor it was 0.0279 µM; at serotonin 2 receptor (setting [1]) it was 0.0213 µM.

As to `N#CCNC(=O)Cc1ccc2ccn(C3CCN(CCc4ccc(F)cc4)CC3)c2c1` [Example 308, 1-[1-(4-fluorophenethyl)piperidin-4-yl]-6-cyanomethylcarbamoylmethylindole Oxalate], the Ki on serotonin 1A receptor came to 0.00073 µM; at α1 adrenalin receptor it was 0.0594 µM; at serotonin 2 receptor (setting [1]) it was 0.00384 µM.

For the compound `Fc1ccc(CCCN2CCC(N3CCc4ccccc43)CC2)cc1` [Example 13, 1-[1-(4-fluorophenylpropyl)piperidin-4-yl]indoline], the Ki on serotonin 1A receptor is 0.0242 µM; on α1 adrenalin receptor, 0.188 µM; at serotonin 2 receptor (setting [1]), over 0.2 µM.

As to “1-[1-(4-fluorophenethyl)piperidin-4-yl]-7-hydroxy-(4a,7a)-cyclohexanoindoline and 1-[1-(4-fluorophenethyl)piperidin-4-yl]-4-hydroxy-(3b,6a)-cyclohexanoindoline [Example 236]”, the Ki on serotonin 1A receptor came to 0.0292 µM; at α1 adrenalin receptor, 0.0722 µM; at serotonin 2 receptor (setting [1]), 0.0106 µM.

For the compound `CCNC(=O)CCc1ccc2ccn(C3CCN(CCc4ccc(F)cc4)CC3)c2c1` [Example 311, 1-[1-(4-fluorophenethyl)piperidin-4-yl]-6-[2-(ethylcarbamoyl)ethyl]indole Oxalate], the Ki on serotonin 1A receptor was found to be 0.00108 µM; on α1 adrenalin receptor it was 0.085 µM; on serotonin 2 receptor (setting [1]), 0.0464 µM.

Take `O=C(Cc1ccc2ccn(C3CCN(CCc4ccc(F)cc4)CC3)c2c1)N(CCO)CCO` [Example 303, 1-[1-(4-fluorophenethyl)piperidin-4-yl]-6-[bis(2-hydroxyethyl)]carbamoylmethylindole Oxalate]: the Ki at serotonin 1A receptor was 0.0036 µM; at α1 adrenalin receptor it was 0.307 µM; at serotonin 2 receptor (setting [1]), 0.0358 µM.

As for `CC(=O)NCc1ccc2c(C#N)cn(C3CCN(CCc4ccc(F)cc4)CC3)c2c1` [Example 387, 3-cyano-1-[1-(4-fluorophenethyl)piperidin-4-yl]-6-acetamidomethylindole], the Ki on serotonin 1A receptor was 0.0635 µM; at α1 adrenalin receptor it was 0.0262 µM; on serotonin 2 receptor (setting [1]) it was over 0.02 µM.

On to `O=C(CCN1CCCCC1)NCc1ccc2ccn(C3CCN(CCc4ccc(F)cc4)CC3)c2c1` [Example 379, 1-[1-(4-fluorophenethyl)piperidin-4-yl]-6-[3-(piperidin-1-yl)propionylamino]methylindole], for which the Ki at serotonin 1A receptor is 0.00965 µM; at α1 adrenalin receptor, 0.0303 µM; at serotonin 2 receptor (setting [1]), 0.00125 µM.

For the compound `O=C(CCO)NCc1ccc2ccn(C3CCN(CCc4ccc(F)cc4)CC3)c2c1` [Example 369, 1-[1-(4-fluorophenethyl)piperidin-4-yl]-6-(3-hydroxypropionylamino)methylindole], the Ki amounted to 0.00202 µM at serotonin 1A receptor, 0.121 µM at α1 adrenalin receptor and 0.00288 µM on serotonin 2 receptor (setting [1]).

With `CN(c1ccc2ccn(C3CCN(CCc4ccc(F)cc4)CC3)c2c1)S(C)(=O)=O` [Example 335], the Ki was 0.00022 µM on serotonin 1A receptor, 0.0284 µM on α1 adrenalin receptor and over 0.02 µM on serotonin 2 receptor.

Turning to `O=C(CN1CCCCC1)NCc1ccc2ccn(C3CCN(CCc4ccc(F)cc4)CC3)c2c1` [Example 376, 1-[1-(4-fluorophenethyl)piperidin-4-yl]-6-[(piperidin-1-yl)acetamido]methylindole], the results for the Ki on serotonin 1A receptor, at α1 adrenalin receptor and at serotonin 2 receptor (setting [1]) were 0.00091 µM, 0.0467 µM and 0.0021 µM, respectively.

`Cc1nc2sccn2c(=O)c1CCN1CCC(N2CCc3ccccc32)CC1` [Co. No. 5 given in WO96/23784, 1-{1-[2-(5-oxo-7-methyl-5H-pyrimidino[2,1-b][1,3]thiazol-6-yl)ethyl]piperidin-4-yl}indoline, reference compound] yielded a Ki at α1 adrenalin receptor of 0.0168 µM.

As to “1-[1-(4-fluorophenethyl)piperidin-4-yl]-6-(1,2,3-triazol-1-yl)methylindoline and 1-[1-(4-fluorophenethyl)piperidin-4-yl]-6-(1,2,3-triazol-2-yl)methylindoline [Example 212]”, the results for the Ki on serotonin 1A receptor and on serotonin 2 receptor (setting [1]) were 0.00082 µM and 0.00036 µM, respectively.

As to `OC1(C2CCc3cccnc32)CCN(CCc2ccc(F)cc2)CC1` (centres unmarked) [Example 255, 7-[4-hydroxy-1-(4-fluorophenethyl)piperidin-4-yl]-5,6-dihydro-7H-pyrindine], the Ki is over 0.2 µM at serotonin 1A receptor and 0.0157 µM at serotonin 2 receptor (setting [1]).

Take `N#Cc1ccc(CCN2CCC(N3CCc4ccccc43)CC2)cc1` [Example 21, 1-[1-(4-cyanophenethyl)piperidin-4-yl]indoline]: the Ki on serotonin 1A receptor came out at 0.0019 µM; at serotonin 2 receptor (setting [1]), 0.0427 µM.

With `CCN1CCC(Cc2ccc3c(c2)N(C2CCN(CCc4ccc(F)cc4)CC2)CC3)CC1` [Example 169, 1-[1-(4-fluorophenethyl)piperidin-4-yl]-6-[(1-ethylpiperidin-4-yl)methyl]indoline], the values for the Ki on serotonin 1A receptor and at serotonin 2 receptor (setting [1]) were 0.0164 µM and 0.0138 µM, respectively.

In the case of `OCCc1ccc(OCCCN2CCC(N3CCc4ccccc43)CC2)cc1` [Example 71, 1-{1-[3-(4-hydroxyethylphenoxy)propyl]piperidin-4-yl}indoline], the Ki on serotonin 1A receptor worked out at 0.0254 µM; at serotonin 2 receptor (setting [1]) it was 0.0282 µM.

As to `CC(C)C(=O)NCc1ccc2c(c1)N(C1CCN(CCc3ccc(F)cc3)CC1)CC2` [Example 158, 1-[1-(4-fluorophenethyl)piperidin-4-yl]-6-isobutyrylaminomethylindoline], the figures for the Ki on serotonin 1A receptor and on serotonin 2 receptor (setting [1]) were 0.00818 µM and 0.00016 µM, respectively.

As for `CCN1CC[C@H](N2CCc3ccccc32)[C@H](COc2ccc(F)cc2)C1` (relative stereo) [Example 84, cis-1-[1-ethyl-3-(4-fluorophenoxymethyl)piperidin-4-yl]indoline], the Ki at serotonin 1A receptor is over 0.2 µM; on serotonin 2 receptor (setting [1]), 0.134 µM.

In the case of `Fc1ccc(CCN2CCC(C3CCc4cccnc43)CC2)cc1` (centres unmarked) [Example 257, 7-[1-(4-fluorophenethyl)piperidin-4-yl]-5,6-dihydro-7H-pyrindine], the values for the Ki at serotonin 1A receptor and on serotonin 2 receptor (setting [1]) were 0.0028 µM and 0.00061 µM, respectively.

As for `CC(=O)NCc1ccc2ccn(C3CCN(CCc4ccc(F)cc4F)CC3)c2c1` [Example 357, 1-[1-(2,4-difluorophenethyl)piperidin-4-yl]-6-acetamidomethylindole], the Ki at serotonin 1A receptor turned out to be 0.00038 µM; on serotonin 2 receptor (setting [1]) it was 0.0013 µM.

With `O=C(Cc1ccc2c(c1)N(C1CCN(CCc3ccc(F)cc3)CC1)CC2)N1CCCC1` [Example 155, 1-[1-(4-fluorophenethyl)piperidin-4-yl]-6-(tetramethylenecarbamoylmethyl)indoline], the Ki on serotonin 1A receptor turned out to be 0.0148 µM; at serotonin 2 receptor (setting [1]), 0.00133 µM.

Regarding `Fc1ccc(CCN2CCC(N3CCc4ccc(Cn5cncn5)cc43)CC2)cc1` [Example 213, 1-[1-(4-fluorophenethyl)piperidin-4-yl]-6-(1,2,4-triazol-2-yl)methylindoline], the Ki on serotonin 1A receptor was determined as 0.00103 µM; at serotonin 2 receptor (setting [1]), 0.00018 µM.

(Values after patent US6579881B2 (Eisai Co., Ltd., priority 1997, dated 2003).)
